Measured values as given in patent US20260165323A1, “USE OF STROBILURIN TYPE COMPOUNDS FOR COMBATING PHYTOPATHOGENIC FUNGI CONTAINING AN AMINO ACID SUBSTITUTION F129L IN THE MITOCHONDRIAL CYTOCHROME B PROTEIN CONFERRING RESISTANCE TO QO […]” (priority 2022, published 2026).

How the values were obtained:
Type in all cases: in vivo
Puccinia recondita [1] = test: Use Example 4: preventative control of brown rust on wheat (PUCCRT P7); conditions: inoculated seven days after spraying, % diseased leaf area
Outline: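 First two leaves of potted wheat seedlings sprayed to run-off with compound in acetone/DMSO–emulsifier–water, then inoculated with Puccinia recondita spores seven days later. Plants held 24 h dark at 95–99% RH and 20–24 °C, then 9–11 days in greenhouse; diseased leaf area (%) scored visually.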

Puccinia recondita [2] = test: Use Example 3: curative control of brown rust on wheat (PUCCRT K4); conditions: % diseased leaf area
Outline: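 Wheat seedlings inoculated with Puccinia recondita spores, held 24 h at 95–99% RH, 20–24° C in dark, then 3 days in greenhouse before spraying to run-off (curative). Compound in acetone/DMSO–Wettol–water. After 5–7 further days at 20–24° C, 65–70% RH, % diseased leaf area scored visually.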

[3] = system: Phakopsora pachyrhizi containing the amino acid substitution F129L in the mitochondrial cytochrome b protein; test: Use Example 2: protective control of soybean rust on soybeans (PHAKPA P6); conditions: inoculated six days after spraying, % diseased leaf area
Outline: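 Compound in acetone and/or DMSO with Wettol (99:1), diluted with water, was sprayed to run-off on potted soybean seedlings. After six days at 23–27°C and 60–80% RH, plants were inoculated with a Qo-resistant F129L strain and held 24 h at about 95% RH. Percent diseased leaf area was scored visually after up to 14 days.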

[4] = system: Phakopsora pachyrhizi containing the amino acid substitution F129L in the mitochondrial cytochrome b protein; test: Use Example 1: protective control of soybean rust on soybeans (PHAKPA P2); conditions: inoculated 2 days after spraying, % diseased leaf area
Outline: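 Soybean seedling leaves sprayed to run-off with compound in acetone/DMSO–Wettol–water at the stated concentration, kept 2 days at 23-27° C, then inoculated with Qo-inhibitor-resistant F129L P. pachyrhizi. After 24 h at ~95% RH, 20-24° C, and up to 14 days in greenhouse, % diseased leaf area scored visually.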

Structure (SMILES)	% PUCCRT Disease level P7 at 4 ppm (Puccinia recondita [1]) [%]	% PUCCRT Disease level P7 at 16 ppm (Puccinia recondita [1]) [%]	% PUCCRT Disease level K4 at 4 ppm (Puccinia recondita [2]) [%]	% PUCCRT Disease level K4 at 16 ppm (Puccinia recondita [2]) [%]	% PHAKPA (F129L) Disease level P6 at 4 ppm [3] [%]	% PHAKPA (F129L) Disease level P6 at 16 ppm [3] [%]	% PHAKPA (F129L) Disease level P2 at 4 ppm [4] [%]	% PHAKPA (F129L) Disease level P2 at 16 ppm [4] [%]
CCOC/C(=N\OCc1c(Cl)cccc1/C(=C\OC)C(=O)OC)c1c(F)cc(F)cc1F [compound 30]	80	37	77	35	25	5	7	0
CO/C=C(/C(=O)OC)c1cccc(Cl)c1CO/N=C(\COC)c1ccccc1C [compound 123]	77	33	72	21	38	7	41	2
CO/C=C(/C(=O)OC)c1cccc(Cl)c1CO/N=C(\COC)c1ccc(Cl)cc1F [compound 106]	19	2	28	4	8	1	14	1
CO/C=C(/C(=O)OC)c1cccc(Cl)c1CO/N=C(\COC)c1ccc(Cl)c(F)c1 [compound 110]	41	3	70	4	15	0	1	0
CO/C=C(/C(=O)OC)c1cccc(Cl)c1CO/N=C(\COC)c1ccc(F)c(F)c1F [compound 101]	54	3	35	3	6	0	2	0
CNC(=O)/C(=N/OC)c1cccc(Cl)c1CO/N=C(\COC)c1ccc(F)c(F)c1 [compound 97]	23	4	9	3	17	1	3	0
CCOC/C(=N\OCc1c(F)cccc1/C(=C\OC)C(=O)OC)c1ccc(F)cc1 [compound 16]	80	43	83	57	70	17	20	4
CCOC/C(=N\OCc1c(Cl)cccc1/C(=N\OC)C(=O)NC)c1cccc(Cl)c1 [compound 40]	30	4	73	40	33	4	15	1
CCOC/C(=N\OCc1c(Cl)cccc1/C(=N\OC)C(=O)OC)c1cccc(Cl)c1 [compound 33]	65	35	73	73	75	72	93	67
CCOC/C(=N\OCc1c(Br)cccc1/C(=C\OC)C(=O)OC)c1ccc(F)cc1 [compound 66]	27	4	62	8	13	1	11	1
CCOC/C(=N\OCc1c(Cl)cccc1/C(=C\OC)C(=O)OC)c1cccc(Cl)c1 [compound 38]	20	2	50	8	50	6	23	3
CCOCC(=NOCc1c(Cl)cccc1C(=COC)C(=O)OC)c1ccc(F)cc1 [compound 23]	37	6	67	23	25	6	9	0
COC/C(=N\OCc1c(Cl)cccc1/C(=N\OC)C(=O)OC)c1cccc(F)c1 [compound 25]	35	5	83	78	90	58	82	23
CNC(=O)/C(=N/OC)c1cccc(Cl)c1CO/N=C(\COC)c1ccc(Cl)c(Cl)c1 [compound 69]	7	3	33	3	15	1	43	7
CCOC/C(=N\OCc1c(Cl)cccc1/C(=N\OC)C(=O)NC)c1ccc(F)cc1 [compound 48]	63	17	77	50	80	17	80	7
CNC(=O)/C(=N/OC)c1cccc(Cl)c1CO/N=C(\COC)c1ccc(Cl)c(F)c1 [compound 109]	5	0	63	4	37	4	13	2
CNC(=O)/C(=N/OC)c1cccc(Cl)c1CO/N=C(\COC)c1cccc(Cl)c1F [compound 99]	42	7	82	10	17	2	21	1
CNC(=O)/C(=N/OC)c1cccc(Cl)c1CO/N=C(\COC)c1ccccc1F [compound 21]	33	6	63	28	16	1	7	0
CO/C=C(/C(=O)OC)c1cccc(Cl)c1CO/N=C(\COC)c1ccccc1 [compound 11, Methyl-(E)-2-[3-chloro-2-[[(Z)-(2-methoxy-1-phenyl-ethylidene)amino]oxymethyl]phenyl]-3-methoxy-prop-2-enoate]	25	1	7	0	11	0	2	0
CCOC/C(=N\OCc1c(Cl)cccc1/C(=N\OC)C(=O)NC)c1c(F)cc(F)cc1F [compound 32]	53	30	77	57	33	1	12	0
